Data reported in the NIST ThermoML archive (doi:10.1021/acs.jced.8b00132).
Where “and” joins values, the source holds several entries; their conditions need not be identical. Equal entries are not always repeated.

Conditions: Gas

O=C(C(F)(F)C(F)(F)F)C(F)(C(F)(F)F)C(F)(F)F [dodecafluoro-2-methylpentan-3-one]
Conditions	thermal conductivity
454.15 K, 782 kPa, transient hot wire	0.02353 W/m/K
454.15 K, 47000 kPa, transient hot wire	0.06263 W/m/K
454.17 K, 779 kPa, transient hot wire	0.02342 W/m/K
454.18 K, 46933 kPa, transient hot wire	0.06269 W/m/K and 0.06261 W/m/K
454.2 K, 169 kPa, hot wire	0.0226 W/m/K
454.2 K, 1365 kPa, transient hot wire	0.0246 W/m/K
454.21 K, 169 kPa, hot wire	0.02248 W/m/K
454.21 K, 1366 kPa, transient hot wire	0.02448 W/m/K
454.22 K, 47 kPa, hot wire	0.0225 W/m/K and 0.02246 W/m/K
454.23 K, 526 kPa, transient hot wire	0.02368 W/m/K
454.26 K, 526 kPa, transient hot wire	0.02374 W/m/K
454.32 K, 351 kPa, transient hot wire	0.02402 W/m/K
454.32 K, 354 kPa, transient hot wire	0.02406 W/m/K
454.33 K, 781 kPa, transient hot wire	0.02352 W/m/K
454.36 K, 1365 kPa, transient hot wire	0.02461 W/m/K
454.38 K, 1365 kPa, transient hot wire	0.02468 W/m/K
454.41 K, 524 kPa, transient hot wire	0.02367 W/m/K
454.41 K, 526 kPa, transient hot wire	0.02369 W/m/K
454.49 K, 780 kPa, transient hot wire	0.02364 W/m/K
454.5 K, 345 kPa, transient hot wire	0.02401 W/m/K
454.5 K, 348 kPa, transient hot wire	0.02403 W/m/K
454.5 K, 779 kPa, transient hot wire	0.02369 W/m/K
454.54 K, 1365 kPa, transient hot wire	0.02476 W/m/K
454.58 K, 524 kPa, transient hot wire	0.02372 W/m/K
454.6 K, 523 kPa, transient hot wire	0.02364 W/m/K
454.67 K, 776 kPa, transient hot wire	0.0236 W/m/K
454.68 K, 341 kPa, transient hot wire	0.02404 W/m/K
454.68 K, 343 kPa, transient hot wire	0.02408 W/m/K
454.68 K, 778 kPa, transient hot wire	0.02361 W/m/K
454.78 K, 524 kPa, transient hot wire	0.02371 W/m/K
454.79 K, 524 kPa, transient hot wire	0.02372 W/m/K
454.86 K, 776 kPa, transient hot wire	0.02365 W/m/K
454.87 K, 339 kPa, transient hot wire	0.02408 W/m/K
454.87 K, 774 kPa, transient hot wire	0.02365 W/m/K
454.88 K, 340 kPa, transient hot wire	0.02406 W/m/K
454.98 K, 523 kPa, transient hot wire	0.02378 W/m/K and 0.02375 W/m/K
455.07 K, 337 kPa, transient hot wire	0.02422 W/m/K
455.08 K, 338 kPa, transient hot wire	0.02415 W/m/K
472.48 K, 3077 kPa, transient hot wire	0.03434 W/m/K
472.49 K, 3077 kPa, transient hot wire	0.03339 W/m/K
472.51 K, 2894 kPa, transient hot wire	0.03274 W/m/K
472.53 K, 2894 kPa, transient hot wire	0.034 W/m/K
472.53 K, 3077 kPa, transient hot wire	0.034 W/m/K
472.55 K, 3077 kPa, transient hot wire	0.03381 W/m/K
472.57 K, 2711 kPa, transient hot wire	0.03198 W/m/K
472.58 K, 2894 kPa, transient hot wire	0.03316 W/m/K
472.59 K, 2711 kPa, transient hot wire	0.03186 W/m/K
472.59 K, 2894 kPa, transient hot wire	0.03275 W/m/K
472.59 K, 3077 kPa, transient hot wire	0.03373 W/m/K
472.6 K, 3077 kPa, transient hot wire	0.03356 W/m/K
472.62 K, 3291 kPa, transient hot wire	0.03462 W/m/K
472.63 K, 2711 kPa, transient hot wire	0.03247 W/m/K
472.64 K, 2711 kPa, transient hot wire	0.03224 W/m/K
472.64 K, 2894 kPa, transient hot wire	0.03315 W/m/K and 0.03273 W/m/K
472.65 K, 3077 kPa, transient hot wire	0.03407 W/m/K and 0.03386 W/m/K
472.67 K, 2504 kPa, transient hot wire	0.03029 W/m/K
472.67 K, 3291 kPa, transient hot wire	0.03475 W/m/K and 0.03505 W/m/K
472.68 K, 2504 kPa, transient hot wire	0.02998 W/m/K
472.68 K, 2894 kPa, transient hot wire	0.03347 W/m/K
472.7 K, 2711 kPa, transient hot wire	0.0322 W/m/K
472.7 K, 2712 kPa, transient hot wire	0.03222 W/m/K
472.7 K, 3078 kPa, transient hot wire	0.03422 W/m/K and 0.0347 W/m/K
472.7 K, 4062 kPa, transient hot wire	0.03638 W/m/K
472.71 K, 2894 kPa, transient hot wire	0.03401 W/m/K
472.71 K, 4063 kPa, transient hot wire	0.03625 W/m/K
472.73 K, 3291 kPa, transient hot wire	0.03502 W/m/K and 0.03525 W/m/K
472.73 K, 3605 kPa, transient hot wire	0.036 W/m/K
472.74 K, 3604 kPa, transient hot wire	0.03572 W/m/K
472.75 K, 2505 kPa, transient hot wire	0.03037 W/m/K
472.75 K, 2894 kPa, transient hot wire	0.0336 W/m/K
472.75 K, 4063 kPa, transient hot wire	0.03659 W/m/K
472.76 K, 2711 kPa, transient hot wire	0.03263 W/m/K
472.77 K, 2712 kPa, transient hot wire	0.03232 W/m/K
472.77 K, 2894 kPa, transient hot wire	0.03342 W/m/K
472.77 K, 4063 kPa, transient hot wire	0.0364 W/m/K
472.78 K, 3291 kPa, transient hot wire	0.03545 W/m/K
472.78 K, 3605 kPa, transient hot wire	0.03545 W/m/K
472.8 K, 4819 kPa, transient hot wire	0.03773 W/m/K
472.81 K, 2264 kPa, transient hot wire	0.02846 W/m/K
472.81 K, 2265 kPa, transient hot wire	0.02848 W/m/K
472.81 K, 4062 kPa, transient hot wire	0.03638 W/m/K
472.81 K, 4820 kPa, transient hot wire	0.03801 W/m/K
472.82 K, 2505 kPa, transient hot wire	0.03067 W/m/K and 0.03052 W/m/K
472.83 K, 2712 kPa, transient hot wire	0.03316 W/m/K
